In ChEMBL document CHEMBL1145711, “Dolabelides C and D, Cytotoxic Macrolides Isolated from the Sea Hare Dolabella auricularia” (J Nat Prod, 1997) one finds IC50 data, which are given here for two compounds.

The nature of the test: Cytotoxicity against human HeLaS3 cells. In kind it is functional, cell-based. Particulars: HeLa S3.

In brackets after ≈: the same amount, converted by molar mass.

For `CCC[C@H](C/C(C)=C/[C@H]1OC(=O)[C@@H](C)[C@@H](O)[C@H](C)CC[C@H](OC(C)=O)C[C@@H](OC(C)=O)C[C@@H](OC(C)=O)CC/C(C)=C/CCC[C@@H](O)C[C@H](O)[C@@H]1C)OC(C)=O` [DOLABELIDE C], the IC50 (usually the midpoint of a concentration-inhibition curve) was found to be 1.9 µg/mL (≈ 2.38 µM).
In turn, `CCC[C@H](C/C(C)=C/[C@H]1OC(=O)[C@@H](C)[C@@H](O)[C@H](C)CC[C@H](O)C[C@@H](OC(C)=O)C[C@@H](O)CC/C(C)=C/CCC[C@@H](O)C[C@H](O)[C@@H]1C)OC(C)=O` [DOLABELIDE D] yielded an IC50 of 1.5 µg/mL (≈ 2.1 µM).
